Measured values reported in ChEMBL document CHEMBL1149319, “Phe-Gly dipeptidomimetics designed for the di-/tripeptide transporters PEPT1 and PEPT2: synthesis and biological investigations” (J Med Chem, 2004).
Peptide text beside a SMILES is read from it.

Key:
[1] = Concentration required to inhibit the maximum [14C]Gly-Sar uptake by Renal peptide transporter PepT2 in SKPT cells; type: cell-based; conditions: Rattus norvegicus
[2] = Affinity against Renal peptide transporter PepT2 in SKPT cells was measured by the inhibition of [14C]Gly-Sar uptake; type: cell-based, Rattus norvegicus
[3] = target: T1, Solute carrier family 15 member 1 (Homo sapiens, UniProt P46059); test: Concentration required to inhibit the maximum [14C]Gly-Sar uptake by human Intestinal peptide transporter PepT1 in Caco-2 cells; type: cell-based
T1 sequence (P46059 whole entry): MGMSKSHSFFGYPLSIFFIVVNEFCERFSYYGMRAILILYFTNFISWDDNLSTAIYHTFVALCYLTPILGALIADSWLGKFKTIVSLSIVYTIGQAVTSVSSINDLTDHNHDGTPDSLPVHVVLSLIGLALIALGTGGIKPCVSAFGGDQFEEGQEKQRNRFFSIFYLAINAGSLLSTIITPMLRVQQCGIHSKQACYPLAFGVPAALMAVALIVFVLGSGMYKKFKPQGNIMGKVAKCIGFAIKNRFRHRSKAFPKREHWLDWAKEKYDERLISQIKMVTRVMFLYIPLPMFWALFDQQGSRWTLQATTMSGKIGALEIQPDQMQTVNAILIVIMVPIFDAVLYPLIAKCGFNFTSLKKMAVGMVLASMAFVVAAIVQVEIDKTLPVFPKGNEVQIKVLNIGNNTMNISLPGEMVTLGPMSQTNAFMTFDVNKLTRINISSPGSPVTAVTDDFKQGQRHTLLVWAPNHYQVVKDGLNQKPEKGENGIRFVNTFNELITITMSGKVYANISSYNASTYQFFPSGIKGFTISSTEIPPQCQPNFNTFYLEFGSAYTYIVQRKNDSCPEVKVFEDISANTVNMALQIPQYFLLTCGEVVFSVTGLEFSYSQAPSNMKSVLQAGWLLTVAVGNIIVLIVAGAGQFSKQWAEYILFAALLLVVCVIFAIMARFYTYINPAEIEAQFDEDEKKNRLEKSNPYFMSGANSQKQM

[4] = target: T1, Solute carrier family 15 member 1; test: Affinity fo the compound against human Intestinal peptide transporter PepT1 in Caco-2 cells was measured as inhibition of [14C]Gly-Sar uptake; type: cell-based

Structure (SMILES)	IC50 [1]	Ki [2]	IC50 [3]	Ki [4]
N[C@@H](Cc1ccccc1)[C@@H](O)CCC(=O)O	8180 µM	6920 µM		
N[C@@H](Cc1ccccc1)[C@@H](O)/C=C/C(=O)O	1590 µM	1350 µM	40500 µM	39800 µM
N[C@@H](Cc1ccccc1)[C@H](O)/C=C/C(=O)O	4110 µM	3480 µM	26800 µM	26400 µM
N[C@@H](Cc1ccccc1)C(=O)CCC(=O)O	22.2 µM	18.8 µM	400 µM	400 µM

The remaining lines, values ahead:

IC50 [1]	Ki [2]	IC50 [3]	Ki [4]	Structure (SMILES)
8800 µM	7450 µM			N[C@@H](Cc1ccccc1)[C@H](O)CCC(=O)O
41.6 µM	35.2 µM			CC1=C(C(=O)O)N2C(=O)[C@@H](NC(=O)[C@H](N)c3ccccc3)[C@H]2SC1 [CEPHALEXIN ANHYDROUS]
17.2 µM	14.6 µM	200 µM	200 µM	N[C@@H](Cc1ccccc1)C(=O)NCC(=O)O (H-Phe-Gly-OH)
